Measurements as given in patent publication US9550775B2, “Substituted triazolopyridines and methods of use thereof” (GENENTECH, INC., priority 2013, dated 2017).

molecular target: hNav1.7 (Homo sapiens (Human), UniProt Q15858); assay: Tritiated sulfonamide competitive binding to membranes from cells expressing hNav1.7 and the β1 subunit; details: 100 pM [3H]compound, 18 h, room temperature; inactivated state of NaV1.7 membrane binding; read-out: NaV1.7 Ligand Binding Assay (IC50);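 note: displacement of the tritiated ligand from recombinant cell membranes, read by liquid scintillation counting of filter-bound radioactivity, nonspecific binding defined with 1 µM unlabelled compound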
Sequence (Q15858 other isoform, or with tags, fused parts or gaps): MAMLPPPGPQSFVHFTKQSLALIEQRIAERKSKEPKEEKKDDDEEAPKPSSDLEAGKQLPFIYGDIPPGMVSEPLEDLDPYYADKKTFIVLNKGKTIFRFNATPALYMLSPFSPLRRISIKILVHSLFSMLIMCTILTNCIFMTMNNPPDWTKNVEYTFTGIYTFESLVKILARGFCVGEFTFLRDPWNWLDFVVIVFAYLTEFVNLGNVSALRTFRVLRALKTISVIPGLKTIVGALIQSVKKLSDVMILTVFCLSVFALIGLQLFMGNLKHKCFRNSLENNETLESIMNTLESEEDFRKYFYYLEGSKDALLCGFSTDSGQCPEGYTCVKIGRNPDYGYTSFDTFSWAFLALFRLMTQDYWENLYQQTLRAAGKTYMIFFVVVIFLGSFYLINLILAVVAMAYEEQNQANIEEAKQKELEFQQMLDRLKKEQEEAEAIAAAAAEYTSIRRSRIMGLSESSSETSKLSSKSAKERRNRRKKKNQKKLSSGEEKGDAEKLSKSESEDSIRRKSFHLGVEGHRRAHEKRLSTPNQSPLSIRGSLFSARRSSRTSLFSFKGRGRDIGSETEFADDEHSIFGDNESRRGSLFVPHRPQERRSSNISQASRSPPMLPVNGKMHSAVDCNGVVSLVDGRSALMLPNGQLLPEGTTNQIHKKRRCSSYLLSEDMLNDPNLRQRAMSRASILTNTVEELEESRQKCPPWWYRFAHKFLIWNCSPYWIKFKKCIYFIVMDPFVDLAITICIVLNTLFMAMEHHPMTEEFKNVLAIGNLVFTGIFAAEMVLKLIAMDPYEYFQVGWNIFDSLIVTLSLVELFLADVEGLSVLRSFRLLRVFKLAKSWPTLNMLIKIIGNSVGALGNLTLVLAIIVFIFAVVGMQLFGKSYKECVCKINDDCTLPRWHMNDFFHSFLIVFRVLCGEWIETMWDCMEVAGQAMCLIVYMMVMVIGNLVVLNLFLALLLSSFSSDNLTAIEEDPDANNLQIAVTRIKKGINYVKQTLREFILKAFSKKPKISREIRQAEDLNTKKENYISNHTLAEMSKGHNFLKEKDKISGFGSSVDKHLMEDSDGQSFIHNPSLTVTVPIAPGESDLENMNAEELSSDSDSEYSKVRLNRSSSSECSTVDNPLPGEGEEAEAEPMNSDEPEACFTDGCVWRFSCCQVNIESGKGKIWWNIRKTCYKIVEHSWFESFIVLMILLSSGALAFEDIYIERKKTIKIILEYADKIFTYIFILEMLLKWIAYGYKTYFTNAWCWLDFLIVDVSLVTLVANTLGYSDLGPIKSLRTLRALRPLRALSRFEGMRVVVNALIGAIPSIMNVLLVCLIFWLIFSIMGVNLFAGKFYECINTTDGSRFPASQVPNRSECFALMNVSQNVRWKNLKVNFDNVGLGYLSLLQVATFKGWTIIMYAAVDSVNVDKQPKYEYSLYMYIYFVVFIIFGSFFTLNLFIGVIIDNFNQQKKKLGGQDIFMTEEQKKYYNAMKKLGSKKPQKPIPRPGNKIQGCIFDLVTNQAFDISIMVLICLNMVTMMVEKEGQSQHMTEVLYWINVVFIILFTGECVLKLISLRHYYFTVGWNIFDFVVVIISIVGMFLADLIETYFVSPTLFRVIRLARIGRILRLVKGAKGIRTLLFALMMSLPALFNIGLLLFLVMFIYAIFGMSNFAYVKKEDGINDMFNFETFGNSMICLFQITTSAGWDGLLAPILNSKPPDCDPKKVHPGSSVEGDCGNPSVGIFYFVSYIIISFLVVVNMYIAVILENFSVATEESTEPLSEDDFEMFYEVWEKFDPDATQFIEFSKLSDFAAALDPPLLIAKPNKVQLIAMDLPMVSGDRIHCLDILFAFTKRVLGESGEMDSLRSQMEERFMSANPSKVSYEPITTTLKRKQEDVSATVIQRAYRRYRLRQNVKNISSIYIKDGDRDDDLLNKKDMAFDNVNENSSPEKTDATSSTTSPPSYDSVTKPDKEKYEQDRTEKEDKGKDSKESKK
Sequence (Q07699 19-218 partner): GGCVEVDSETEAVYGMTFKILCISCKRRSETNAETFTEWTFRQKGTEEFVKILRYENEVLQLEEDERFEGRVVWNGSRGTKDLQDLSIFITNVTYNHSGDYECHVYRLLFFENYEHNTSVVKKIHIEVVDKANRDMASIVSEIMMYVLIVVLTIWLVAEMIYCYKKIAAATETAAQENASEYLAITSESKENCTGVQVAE

Compound | IC50 [nM]
O=S(=O)(Nc1nnc2cc(OC3C4CC5CC(C4)CC3C5)c(C3CC3)cn12)C1CC1 (centres unmarked) [Example 24, N-(7-(adamantan-2-yloxy)-6-cyclopropyl-[1,2,4]triazolo-[4,3-a]pyridin-3-yl)cyclopropanesulfonamide] | 65.8
CS(=O)(=O)Nc1nnc2cc(OCC3CC4C5CCC(C5)C4C3)c(C3CC3)cn12 [Example 80, N-(6-cyclopropyl-7-(((2s,3aR,4S,7R,7aS)-octahydro-1H-4,7-methanoinden-2-yl)methoxy)-[1,2,4]triazolo[4,3-a]pyridin-3-yl)methanesulfonamide] | 5
O=S(=O)(Nc1nnc2cc(OCC34CC5CC(CC(C5)C3)C4)c(C3CC3)cn12)N1CCC1 [Example 127, N-(7-(adamantan-1-ylmethoxy)-6-cyclopropyl-[1,2,4]triazolo[4,3-a]pyridin-3-yl)azetidine-1-sulfonamide] | 9
CS(=O)(=O)Nc1nnc2cc(OCCC34CC5CC(CC(C5)C3)C4)c(C3CC3)cn12 [Example 21] | 8.51
CS(=O)(=O)Nc1nnc2cc(OC[C@@H]3C[C@H]4CC[C@@H](C3)N4C(c3ccccc3)c3ccccc3)c(C3CC3)cn12 [Example 123, N-(7-(((1R,3S,5S)-8-benzhydryl-8-azabicyclo[3.2.1]octan-3-yl)methoxy)-6-cyclopropyl-[1,2,4]triazolo[4,3-a]pyridin-3-yl)methanesulfonamide] | 17
C=Cc1cn2c(NS(C)(=O)=O)nnc2cc1OCC1(C)CCCCC1 [Example 7, N-(7-((1-methylcyclohexyl)methoxy)-6-vinyl-[1,2,4]-triazolo[4,3-a]pyridin-3-yl)methanesulfonamide] | 65.3
CCc1cn2c(NS(=O)(=O)N3CCC3)nnc2cc1OCC12CC3CC(CC(C3)C1)C2 [Example 126, N-(7-(adamantan-1-ylmethoxy)-6-ethyl-[1,2,4]triazolo[4,3-a]pyridin-3-yl)azetidine-1-sulfonamide] | 31
CCc1cn2c(NS(=O)(=O)N3CC(F)C3)nnc2cc1OCC12CC3CC(CC(C3)C1)C2 [Example 70, N-(7-((3r,5r,7r)-adamantan-1-ylmethoxy)-6-ethyl-[1,2,4]triazolo[4,3-a]pyridin-3-yl)-3-fluoroazetidine-1-sulfonamide] | 140
CC1(S(=O)(=O)Nc2nnc3cc(OCC45CC6CC(CC(C6)C4)C5)c(C4CC4)cn23)CC1 [Example 19, N-(7-((3r,5r,7r)-adamantan-1-ylmethoxy)-6-cyclopropyl-[1,2,4]triazolo[4,3-a]pyridin-3-yl)-1-methylcyclopropane-1-sulfonamide] | 7.19
CCc1cn2c(NS(=O)(=O)N3CC(F)C3)nnc2cc1OCC12CC3CC(CC(C3)C1)C2 [Example 15, N-(7-((3r,5r,7r)-adamantan-1-ylmethoxy)-6-ethyl-[1,2,4]triazolo[4,3-a]pyridin-3-yl)-3-fluoroazetidine-1-sulfonamide] | 138
O=S(=O)(Nc1nnc2cc(OC3CCC4(CCCCC4)CC3)c(C3CC3)cn12)C1CC1 [Example 90, N-(6-cyclopropyl-7-(spiro[5.5]undecan-3-yloxy)-[1,2,4]triazolo[4,3-a]pyridin-3-yl)cyclopropanesulfonamide] | 51
C=Cc1cn2c(NS(C)(=O)=O)nnc2cc1OCC12CC3CC(CC(C3)C1)C2 [Example 128, N-(7-(adamantan-1-ylmethoxy)-6-vinyl-[1,2,4]triazolo[4,3-a]-pyridin-3-yl)methanesulfonamide] | 45
C=Cc1cn2c(NS(C)(=O)=O)nnc2cc1OCC1(C)CCCCC1 [Example 62, N-(7-((1-methylcyclohexyl)methoxy)-6-vinyl-[1,2,4]triazolo-[4,3-a]pyridin-3-yl)methanesulfonamide] | 65
CC1(COc2cc3nnc(NS(=O)(=O)C4CC4)n3cc2C2CC2)CCC2(CC1)CC2 [Example 114, N-(6-cyclopropyl-7-((6-methylspiro[2.5]octan-6-yl)methoxy)-[1,2,4]triazolo[4,3-a]pyridin-3-yl)cyclopropanesulfonamide] | 8
O=S(=O)(Nc1nnc2cc(O[C@@H]3CCCN(Cc4ccc(F)cc4Cl)C3)c(C3CC3)cn12)C1CC1 [Example 113, (R)—N-(7-((1-(2-chloro-4-fluorobenzyl)piperidin-3-yl)oxy)-6-cyclopropyl-[1,2,4]triazolo[4,3-a]pyridin-3-yl)cyclopropanesulfonamide] | 34
O=S(=O)(Nc1nnc2cc(OCCC34CC5CC(CC(C5)C3)C4)c(C3CC3)cn12)C1CC1 [Example 77, N-(7-(2-((3r,5r,7r)-adamantan-1-yl)ethoxy)-6-cyclopropyl-[1,2,4]triazolo[4,3-a]pyridin-3-yl)cyclopropanesulfonamide] | 7
CCS(=O)(=O)Nc1nnc2cc(OCC34CC5CC(CC(C5)C3)C4)c(C3CC3)cn12 [Example 72, N-(7-((3r,5r,7r)-adamantan-1-ylmethoxy)-6-cyclopropyl-[1,2,4]triazolo[4,3-a]pyridin-3-yl)ethanesulfonamide] | 4
O=S(=O)(Nc1nnc2cc(OCCC34CC5CC(CC(C5)C3)C4)c(C3CC3)cn12)C1CC1 [Example 22] | 7.35

Second part, the compound after the results:

IC50 [nM] | Compound
2.81 | O=S(=O)(Nc1nnc2cc(COc3cc(Cl)cc(OC(F)(F)F)c3)c(C3CC3)cn12)C1CC1 [Example 42, N-(7-((3-chloro-5-(trifluoromethoxy)phenoxy)methyl)-6-cyclopropyl-[1,2,4]triazolo[4,3-a]pyridin-3-yl)cyclopropanesulfonamide]
22.6 | CS(=O)(=O)Nc1nnc2cc(OC[C@H]3CC[C@H](C(F)(F)F)CC3)c(C3CC3)cn12 [Example 13, N-(6-cyclopropyl-7-(((trans)-4-(trifluoromethyl)cyclohexyl)-methoxy)-[1,2,4]triazolo[4,3-a]pyridin-3-yl)methanesulfonamide]
18 | CS(=O)(=O)Nc1nnc2cc(OC[C@H]3CC[C@H](C)CC3)c(C3CC3)cn12 [Example 88]
86.6 | CS(=O)(=O)Nc1nnc2cc(OC[C@H]3CC[C@H](C)CC3)c(Br)cn12 [Example 32]
18.4 | CS(=O)(=O)Nc1nnc2cc(OC[C@H]3CC[C@H](C)CC3)c(C3CC3)cn12 [Example 33]
7.29 | Cc1cc(Cl)cc(OCc2cc3nnc(NS(C)(=O)=O)n3cc2C2CC2)c1 [Example 47, N-(7-((3-chloro-5-methylphenoxy)methyl)-6-cyclopropyl-[1,2,4]triazolo[4,3-a]pyridin-3-yl)methanesulfonamide]
8 | CC1(COc2cc3nnc(NS(=O)(=O)C4CC4)n3cc2C2CC2)CCN(Cc2cc(Cl)cc(Cl)c2)CC1 [Example 111, N-(6-cyclopropyl-7-((1-(3,5-dichlorobenzyl)-4-methylpiperidin-4-yl)methoxy)-[1,2,4]triazolo[4,3-a]pyridin-3-yl)cyclopropanesulfonamide]
19 | O=S(=O)(Nc1nnc2cc(COc3ccc(Cl)c(Cl)c3)c(C3CC3)cn12)N1CCC1 [Example 96, N-(6-cyclopropyl-7-((3,4-dichlorophenoxy)methyl)-[1,2,4]triazolo[4,3-a]pyridin-3-yl)azetidine-1-sulfonamide]
12 | C[C@@H](c1cc(Cl)cc(Cl)c1)N1CCC(COc2cc3nnc(NS(=O)(=O)C4CC4)n3cc2C2CC2)CC1 [Example 121]
6.83 | O=S(=O)(Nc1nnc2cc(COc3ccc(Cl)c(Cl)c3)c(C3CC3)cn12)C1CC1 [Example 39]
3.94 | CC1(S(=O)(=O)Nc2nnc3cc(COc4cc(Cl)cc(OC(F)(F)F)c4)c(C4CC4)cn23)CC1 [Example 49, N-(7-((3-chloro-5-(trifluoromethoxy)phenoxy)methyl)-6-cyclopropyl-[1,2,4]triazolo[4,3-a]pyridin-3-yl)-1-methylcyclopropane-1-sulfonamide]
320 | O=S(=O)(Nc1nnc2cc(CN3CCC(Oc4cc(Cl)cc(Cl)c4)CC3)c(C3CC3)cn12)C1CC1 [Example 124, N-(6-cyclopropyl-7-((4-(3,5-dichlorophenoxy)piperidin-1-yl)methyl)-[1,2,4]triazolo[4,3-a]pyridin-3-yl)cyclopropanesulfonamide]
23 | C[C@H](c1cc(Cl)cc(Cl)c1)N1CCC(COc2cc3nnc(NS(C)(=O)=O)n3cc2C2CC2)CC1 [Example 119, (R)—N-(6-cyclopropyl-7-((1-(1-(3,5-dichlorophenyl)ethyl)piperidin-4-yl)methoxy)-[1,2,4]triazolo[4,3-a]pyridin-3-yl)methanesulfonamide]
2.5 | CS(=O)(=O)Nc1nnc2cc(COc3cc(Cl)cc(OC(F)(F)F)c3)c(C3CC3)cn12 [Example 43, N-(7-((3-chloro-5-(trifluoromethoxy)phenoxy)methyl)-6-cyclopropyl-[1,2,4]triazolo[4,3-a]pyridin-3-yl)methanesulfonamide]
90 | CS(=O)(=O)Nc1nnc2cc(OCC3CCCCC3)c(Br)cn12 [Example 61, N-(6-bromo-7-(cyclohexylmethoxy)-[1,2,4]triazolo[4,3-a]pyridin-3-yl)methanesulfonamide]
3 | CS(=O)(=O)Nc1nnc2cc(COc3cc(Cl)cc(OC(F)(F)F)c3)c(C3CC3)cn12 [Example 98, N-(7-((3-chloro-5-(trifluoromethoxy)phenoxy)methyl)-6-cyclopropyl-[1,2,4]triazolo[4,3-a]pyridin-3-yl)methanesulfonamide]
260 | CC1(C)C2CC[C@]1(C)[C@H](Oc1cc3nnc(NS(C)(=O)=O)n3cc1C1CC1)C2 (stereo in doubt) [Example 86]
90.3 | CS(=O)(=O)Nc1nnc2cc(OCC3CCCCC3)c(Br)cn12 [Example 6]
3 | CC1(C)[C@H]2CC[C@H](COc3cc4nnc(NS(C)(=O)=O)n4cc3C3CC3)[C@@H]1C2 [Example 83]
45 | CS(=O)(=O)Nc1nnc2cc(OCC3(C(F)(F)F)CCCC3)c(C3CC3)cn12 [Example 92, N-(6-cyclopropyl-7-((1-(trifluoromethyl)cyclopentyl)methoxy)-[1,2,4]triazolo[4,3-a]pyridin-3-yl)methanesulfonamide]
